Experimental data taken from PMC9080097, “Identification of absorbed constituents and evaluation of the pharmacokinetics of main compounds after oral administration of yindanxinnaotong by UPLC-Q-TOF-MS and UPLC-QqQ-MS” (RSC Advances, 2018).

Tests used:
[1] = Stability of the analytes in rat plasma QC samples (short-term, autosampler, freeze-thaw, long-term); settings: n = 6
[2] = Pharmacokinetics study in rats after oral administration of YDXNT (UPLC-QqQ-MS of plasma)
Experimental: (§1) Six milliliters of 75% methanol was added to two milliliters of prepared plasma and then vortexed for 60 s. The mixture was centrifuged at 4000 rpm for 10 min at 4 °C. The supernatant was transferred to another EP tube and dried using a pressure blowing concentrator. The residue was redissolved with 200 μL of 75% methanol, vortexed for 60 s, and then centrifuged at 13 000 rpm for 10 min. To an aliquot of 200 μL plasma, 120 μL of 0.2 mol L^−1 acetic acid–sodium acetate buffer solution (pH = 4.6), 100 μL of the IS baicalein and 80 μL of 980 U mL^−1 β-glucuronidase and sulfatase was added and then vortexed for 1 min. The mixture was hydrolyzed in a water bath at 37 °C for 30 min, and 600 μL acetone was added to stop the hydrolysis. The sample was cooled, followed by vortexing for 2 min and then centrifugation at 13 000 rpm for 10 min. The supernatant fluid was evaporated to dryness under a flow of nitrogen gas.
(§2) Chromatographic analysis was performed using an Agilent 1290 Series UPLC from Agilent Technologies (Palo Alto, CA, USA), equipped with a quaternary pump an online degasser, auto-sampler and column oven. Chromatographic separation was performed on the Agilent ZORBAX SB-Aq C18 column (100 mm × 2.1 mm, 1.8 μm, Agilent, USA). The analytical column temperature was maintained at 30 °C and eluted with a mobile phase comprising 0.1% formic acid in water (A) and acetonitrile (B) using the following gradient program: 25–90% B from 0 to 1 min, 90% B from 1 to 3.5 min, and 90–25% B from 3.5 to 5 min at a flow rate of 0.3 mL min^−1. The equilibration time was 5 min, and the injection volume of sample and reference constituents was 5 μL.
(§3) Mass spectrometry was performed on the Agilent 6490 triple-quadrupole mass spectrometer (Palo Alto, CA, USA) equipped with an atmospheric pressure chemical ionization (APCI) interface. The mass spectrometer was set in negative ionization mode, with the capillary voltage set at 3500 V. The other parameters in the source were set as follows: desolvation gas flow, 15 L min^−1; source temperature, 290 °C; N2 sheath gas temperature, 350 °C; nebulizer gas (N2) pressure, 50 psi; flow, 12 L min^−1. The mass spectrometer scanned in multiple reaction monitoring (MRM) mode.
(§4) Six male rats were used in the pharmacokinetics study. All the rats were orally administered 2.4 g kg^−1 YXCNT suspended in an aqueous solution of 0.5% carboxymethyl cellulose sodium (QCT: 4.118 mg; KMF: 5.067 mg; ISR: 0.965 mg; GA: 1.416 mg; GB: 0.680 mg; GC: 0.796 mg; BB: 0.326 mg; TSIIA: 0.624 mg; SAB: 3.84 mg). After dosing for 0 min, 5 min, 15 min, 20 min, 30 min, 45 min, 1 h, 1.5 h, 2 h, 3 h, 4 h, 6 h, 8 h, 12 h, and 24 h, blood samples (500 μL) were drawn from the retro-orbital plexus of each mouse and collected in heparinized tubes according to the specific schedule. All the collected blood samples were immediately centrifuged at 13 000 rpm for 10 min. The plasma layer was transferred to clean tubes and stored at −20 °C until analysis. The plasma concentrations of QCT, ISR, KMF, GA, GB, GC, BB, TSIIA, and SAB were expressed as the mean ± standard deviation (SD), and the mean concentration–time curve was plotted. Non-compartmental pharmacokinetic parameters were computed using DAS 2.1.1 software.

in vivo = settings: male, Sprague-Dawley, rat, po
Experimental: as §1, §2, §3, §4

[3] = 1 ng mL^−1, -20°C for four weeks
[4] = 1 ng mL^−1, room temperature for 6 h before sample preparation
[5] = 1 ng mL^−1, room temperature for 12 h in the autosampler after sample preparation
[6] = 1 ng mL^−1, three freeze-thaw cycles -20°C to ambient temperature
[7] = 10 ng mL^−1, -20°C for four weeks
[8] = 10 ng mL^−1, room temperature for 6 h before sample preparation
[9] = 10 ng mL^−1, room temperature for 12 h in the autosampler after sample preparation
[10] = 10 ng mL^−1, three freeze-thaw cycles -20°C to ambient temperature
[11] = 100 ng mL^−1, -20°C for four weeks
[12] = 100 ng mL^−1, room temperature for 6 h before sample preparation
[13] = 100 ng mL^−1, room temperature for 12 h in the autosampler after sample preparation
[14] = 100 ng mL^−1, three freeze-thaw cycles -20°C to ambient temperature
[15] = male, Sprague-Dawley, rat, plasma, po, 4.8 g kg^−1 d^−1
[16] = rat plasma, oral YDXNT 4.8 g kg^−1 d^−1 (2.4 g kg^−1 in source), n = 6, mean ± SD
[17] = rat plasma, oral YDXNT 4.8 g kg^−1 d^−1 (2.4 g kg^−1 in source), n = 6, non-compartmental

| Compound | Long-term stability Accuracy [1, 3] [%] | Short-term stability Accuracy [1, 4] [%] | Autosampler stability Accuracy [1, 5] [%] | Freeze–thaw strability (three cycles) Accuracy [1, 6] [%] | Long-term stability Accuracy [1, 7] [%] | Short-term stability Accuracy [1, 8] [%] | Autosampler stability Accuracy [1, 9] [%] | Freeze–thaw strability (three cycles) Accuracy [1, 10] [%] | Long-term stability Accuracy [1, 11] [%] | Short-term stability Accuracy [1, 12] [%] | Autosampler stability Accuracy [1, 13] [%] | Freeze–thaw strability (three cycles) Accuracy [1, 14] [%] | AUC(0-inf) [2, 15] [µg·h/mL] | AUC(0-t) [2, 15] [µg·h/mL] | Cmax [2, 15] [µg/mL] | MRT [2, 15] [h] | Tmax [2, 15] [h] | half-life [2, 15] [h] | also measured |
| --- | --- | --- | --- | --- | --- | --- | --- | --- | --- | --- | --- | --- | --- | --- | --- | --- | --- | --- | --- |
| CC(C)(C)[C@]1(O)CC2OC(=O)CC23C(=O)OC2OC(=O)[C@H](O)C231 (stereo partly drawn) [BB, bilobalide] | 99.15 ± 5.73 | 98.10 ± 7.83 | 103.47 ± 6.75 | 99.85 ± 6.27 | 96.38 ± 8.63 | 99.78 ± 5.25 | 95.29 ± 2.77 | 98.88 ± 3.59 | 95.54 ± 7.76 | 94.05 ± 2.61 | 97.44 ± 3.13 | 95.47 ± 4.92 | 0.384 ± 0.0515 | 0.366 ± 0.0484 | 0.0487 ± 0.0123 | 9.62 ± 3.18 | 0.75 ± 0.5 | 5.55 ± 2.67 |  |
| C[C@@H]1C(=O)O[C@H]2C[C@@]34[C@H]5C[C@@H](C(C)(C)C)[C@]36[C@@H](OC(=O)[C@@H]6O)O[C@@]4(C(=O)O5)[C@]21O [GA, ginkgolide A] | 98.92 ± 5.81 | 100.59 ± 6.08 | 97.28 ± 2.19 | 102.76 ± 5.39 | 95.48 ± 10.28 | 102.54 ± 7.33 | 98.33 ± 3.46 | 98.42 ± 2.84 | 92.19 ± 8.81 | 98.31 ± 5.29 | 96.83 ± 8.30 | 95.44 ± 7.51 |  |  |  |  |  |  | AUC(0-inf) (in vivo): 0.545 ± 0.0789 µg·h/mL; AUC(0-t) (in vivo): 0.491 ± 0.0726 µg·h/mL; Cmax (in vivo): 0.0763 ± 0.0182 µg/mL; MRT (in vivo): 9.42 ± 1.77 h; Tmax (in vivo): 0.75 ± 0.29 h; half-life (in vivo): 7.52 ± 2.08 h |
| COc1cc(-c2oc3cc(O)cc(O)c3c(=O)c2O)ccc1O [ISR, isorhamnetin] | 98.35 ± 6.27 | 99.24 ± 6.68 | 98.06 ± 8.29 | 103.15 ± 5.43 | 96.44 ± 6.33 | 96.28 ± 5.89 | 97.72 ± 3.83 | 94.52 ± 3.68 | 95.76 ± 8.18 | 102.18 ± 4.95 | 98.34 ± 7.61 | 99.63 ± 3.38 |  |  |  |  |  |  | AUC(0-inf) (in vivo): 0.384 ± 0.0551 µg·h/mL; AUC(0-t) (in vivo): 0.319 ± 0.0493 µg·h/mL; Cmax (in vivo): 0.0279 ± 0.00838 µg/mL; MRT (in vivo): 13.9 ± 3.71 h; Tmax (in vivo): 0.33 ± 0.14 h; half-life (in vivo): 8.19 ± 2.42 h |
| O=c1c(O)c(-c2ccc(O)cc2)oc2cc(O)cc(O)c12 [KMF, kaempferol] | 98.70 ± 9.35 | 96.50 ± 6.47 | 99.17 ± 4.39 | 101.23 ± 8.76 | 100.48 ± 7.44 | 101.22 ± 2.09 | 102.65 ± 5.28 | 103.21 ± 4.14 | 95.21 ± 5.96 | 97.10 ± 3.69 | 95.96 ± 3.11 | 94.24 ± 6.63 | 0.539 ± 0.0823 | 0.401 ± 0.0844 | 0.0499 ± 0.0138 | 17.1 ± 4.42 | 0.5 ± 0.23 | 8.19 ± 2.42 |  |
| O=c1c(O)c(-c2ccc(O)c(O)c2)oc2cc(O)cc(O)c12 [QCT, quercetin] | 97.57 ± 3.42 | 100.23 ± 1.69 | 103.73 ± 5.52 | 98.27 ± 6.33 | 96.41 ± 5.79 | 97.45 ± 4.23 | 99.34 ± 6.73 | 100.31 ± 4.27 | 93.17 ± 7.35 | 95.97 ± 2.36 | 94.22 ± 5.14 | 98.35 ± 7.84 | 0.412 ± 0.0827 | 0.41 ± 0.0732 | 0.045 ± 0.0113 | 8.44 ± 1.24 | 0.33 ± 0.11 | 2.69 ± 0.65 |  |
| Cc1coc2c1C(=O)C(=O)c1c-2ccc2c1CCCC2(C)C [TSIIA, tanshinone IIA] | 101.23 ± 8.76 | 96.50 ± 6.47 | 102.65 ± 5.28 | 100.31 ± 4.27 | 103.21 ± 4.14 | 101.22 ± 2.09 | 95.96 ± 3.11 | 101.22 ± 2.09 | 94.24 ± 6.63 | 95.96 ± 3.11 | 99.15 ± 5.73 | 95.97 ± 2.36 | 0.183 ± 0.0774 | 0.167 ± 0.0695 | 0.0383 ± 0.0174 | 9.89 ± 1.5 | 0.25 ± 0.23 | 7.04 ± 2.18 |  |
| salvianolic acid B [SAB] |  |  |  |  |  |  |  |  |  |  |  |  |  |  |  |  |  |  | Long-term stability Accuracy ([1]; 5 ng mL^−1, -20°C for four weeks): 102.76 ± 5.39%; Short-term stability Accuracy ([1]; 5 ng mL^−1, room temperature for 6 h before sample preparation): 97.28 ± 2.19%; Autosampler stability Accuracy ([1]; 5 ng mL^−1, room temperature for 12 h in the autosampler after sample preparation): 96.38 ± 8.63%; Freeze–thaw strability (three cycles) Accuracy ([1]; 5 ng mL^−1, three freeze-thaw cycles -20°C to ambient temperature): 99.24 ± 6.68%; Long-term stability Accuracy ([1]; 50 ng mL^−1, -20°C for four weeks): 95.72 ± 6.59%; Short-term stability Accuracy ([1]; 50 ng mL^−1, room temperature for 6 h before sample preparation): 96.44 ± 6.33%; Autosampler stability Accuracy ([1]; 50 ng mL^−1, room temperature for 12 h in the autosampler after sample preparation): 96.41 ± 5.79%; Freeze–thaw strability (three cycles) Accuracy ([1]; 50 ng mL^−1, three freeze-thaw cycles -20°C to ambient temperature): 98.88 ± 3.59%; Long-term stability Accuracy ([1]; 500 ng mL^−1, -20°C for four weeks): 97.38 ± 4.39%; Short-term stability Accuracy ([1]; 500 ng mL^−1, room temperature for 6 h before sample preparation): 95.76 ± 8.18%; Autosampler stability Accuracy ([1]; 500 ng mL^−1, room temperature for 12 h in the autosampler after sample preparation): 93.17 ± 7.35%; Freeze–thaw strability (three cycles) Accuracy ([1]; 500 ng mL^−1, three freeze-thaw cycles -20°C to ambient temperature): 95.47 ± 4.92%; C max [2, 16]: 0.032 ± 0.01543 µg/mL; T max [2, 16]: 0.75 ± 0.18 h; AUC0–INF [2, 17]: 135.72 ± 64.24; MRT [2, 17]: 9.46 ± 2.37 h; T 1/2 [2, 17]: 12.17 ± 3.33 h; AUC0–t ([2]; rat plasma, oral YDXNT 4.8 g kg^−1 d^−1 (2.4 g kg^−1 in source), n = 6, sampling to 24 h, non-compartmental): 118.17 ± 58.46 |
